Measurements as given in patent US11872221B2, “Treating untreated or treatment-resistant diabetes with glucokinase activator” (HUA Medicine (Shanghai) Ltd., priority 2020, dated 2024).
Like-named read-outs stand apart in the source and are kept apart here.

Experiments:
Type in all cases: in vivo, human
[1] = system: C-peptide; experiment: Oral glucose tolerance test, C-peptide response (serum); conditions: for C-peptide CEmax, Mean (SD): baseline corrected, OGTT 75 g glucose 30 min after dose, T2DM subjects, sitagliptin 100 mg QD, dorzagliatin 75 mg BID; for C-peptide AUEC0-4h, GMR (%) / C-peptide CEav, GMR (%) / C-peptide CEmax, GMR (%): printed in the monotherapy column, apparently combination vs that monotherapy
Description: (§1) This phase I study accessed the pharmacokinetic interaction between dorzagliatin and sitagliptin in T2DM subjects. This study also evaluated the safety and tolerability of dorzagliatin with simultaneous administration of sitagliptin in T2DM subjects. Moreover, this study accessed the pharmacodynamic responses of glucose, GLP-1, glucagon, insulin, and C-peptide following dorzagliatin, sitagliptin, or simultaneous administration of dorzagliatin and sitagliptin in T2DM subjects.
(§2) Study drugs are each taken 60 (±5) min prior to meals.
(§3) Subjects consumed a 75-gram glucose solution 30 min following study drug dose administration on Days 5, 10 and 15 in lieu of breakfast. Pharmacodynamic (PD) responses were evaluated by measuring GLP-1 and glucagon levels in plasma, and glucose, insulin, and C-peptide in serum within 60 min prior to oral glucose intake and 0.5, 1, 1.5, 2, 2.5, 3 and 4 h after oral glucose intake.

[2] = Phase 1 drug-drug interaction study, plasma pharmacokinetics of dorzagliatin and sitagliptin; conditions: for AUC(0-t) / Cmax: human, plasma, oral, T2DM subjects
Description: as §1, §2
Blood samples for the determination of dorzagliatin and sitagliptin concentrations and corresponding pharmacokinetic (PK) analysis were collected on Days 5, 10 and 15: pre-dose (within 30 min prior to dosing), and 0.25, 0.5, 1, 1.5, 2, 3, 4, 6, 8, 10, 12, 18, and 24 h post dose.
Dorzagliatin was provided as a film-coated tablets in 75 mg strength for oral administration 60 min prior to a meal. Sitagliptin was provided as JANUVIA® 100 mg tablets for oral administration 60 min prior to a meal. The total duration of participation in the study for each subject was about 59 days (up to 28-day screening period, 12-day run-in period, and 19-day in-clinic period).
The plasma concentration-time data for dorzagliatin and sitagliptin were analyzed using noncompartmental methods to calculate pharmacokinetic parameters.

[3] = system: insulin; experiment: Oral glucose tolerance test, insulin response (serum); conditions: printed in the monotherapy column; apparently combination vs that monotherapy
Description: as §1, §2, §3

[4] = system: glucose; experiment: Oral glucose tolerance test, glucose response (serum); conditions: for Glucose AUEC0-4h, Mean (SD) / Glucose CEav, Mean (SD) / Glucose CEmax, Mean (SD): baseline corrected, OGTT 75 g glucose 30 min after dose, T2DM subjects, sitagliptin 100 mg QD, dorzagliatin 75 mg BID; for Glucose AUEC0-4h, GMR (%) / Glucose CEav, GMR (%) / Glucose CEmax, GMR (%): printed in the monotherapy column, apparently combination vs that monotherapy
Description: as §1, §2, §3

SMILES | C-peptide CEmax, Mean (SD) [1] [ng/mL] | C-peptide AUEC0-4h, GMR (%) [1] [%] | C-peptide CEav, GMR (%) [1] [%] | C-peptide CEmax, GMR (%) [1] [%] | Insulin AUEC0-4h, GMR (%) [3] [%] | Insulin CEav, GMR (%) [3] [%] | Insulin CEmax, GMR (%) [3] [%] | Glucose AUEC0-4h, Mean (SD) [4] | Glucose CEav, Mean (SD) [4] | Glucose CEmax, Mean (SD) [4] | Glucose AUEC0-4h, GMR (%) [4] [%] | Glucose CEav, GMR (%) [4] [%] | Glucose CEmax, GMR (%) [4] [%] | further results
CC(C)C[C@@H](C(=O)Nc1ccn(C[C@@H](O)CO)n1)N1CC(Oc2ccccc2Cl)=CC1=O [Dorzagliatin, (S)-2-(4-(2-chlorophenoxy)-2-oxo-2,5-dihydro-1H-pyrrol-1-yl)-N-(1-((R)-2,3-dihydroxypropyl)-1H-pyrazol-3-yl)-4-methylpentanamide] | 4.2 | 143 | 143 | 145 | 159 | 159 | 146 | 339 (124) h · mg/dL | 84.8 (31) mg/dL | 163 (39) mg/dL | 69 | 69 | 83 | Percent ratio of geometric means (GMR) of dorzagliatin Cmax ([2]; dorzagliatin in combination with sitagliptin vs dorzagliatin alone, 90% CI: 87, 120): 102%; Percent GMR of dorzagliatin AUC0-24h ([2]; dorzagliatin in combination with sitagliptin vs dorzagliatin alone, 90% CI: 96, 105): 100%; AUC(0-t) ([2]; dorzagliatin 75 mg BID alone (Day 15), read-out: Least squares geometric mean AUC0-24h of plasma dorzagliatin): 6.57 µg·h/mL; Cmax ([2]; dorzagliatin 75 mg BID alone (Day 15), read-out: Least squares geometric mean Cmax of plasma dorzagliatin): 0.814 µg/mL; AUC(0-t) ([2]; dorzagliatin 75 mg BID in combination with sitagliptin 100 mg QD (Day 10), read-out: Least squares geometric mean AUC0-24h of plasma dorzagliatin): 6.59 µg·h/mL; Cmax ([2]; dorzagliatin 75 mg BID in combination with sitagliptin 100 mg QD (Day 10), read-out: Least squares geometric mean Cmax of plasma dorzagliatin): 0.833 µg/mL
N[C@@H](CC(=O)N1CCn2c(nnc2C(F)(F)F)C1)Cc1cc(F)c(F)cc1F [Sitagliptin, (R)-3-amino-1-(3-(trifluoromethyl)-5,6-dihydro-[1,2,4]triazolo[4,3-a]pyrazin-7(8H)-yl)-4-(2,4,5-trifluorophenyl)butan-1-one] | 5.1 | 119 | 119 | 125 | 110 | 110 | 125 | 378 (88) h · mg/dL | 94.5 (22) mg/dL | 165 (35) mg/dL | 65 | 65 | 87 | AUC(0-t) ([2]; sitagliptin 100 mg QD alone (Day 5), read-out: Least squares geometric mean AUC0-24h of plasma sitagliptin): 2.94 µg·h/mL; Cmax ([2]; sitagliptin 100 mg QD alone (Day 5), read-out: Least squares geometric mean Cmax of plasma sitagliptin): 0.41 µg/mL; AUC(0-t) ([2]; sitagliptin 100 mg QD in combination with dorzagliatin 75 mg BID (Day 10), read-out: Least squares geometric mean AUC0-24h of plasma sitagliptin): 2.72 µg·h/mL; Cmax ([2]; sitagliptin 100 mg QD in combination with dorzagliatin 75 mg BID (Day 10), read-out: Least squares geometric mean Cmax of plasma sitagliptin): 0.403 µg/mL; Percent GMR of sitagliptin Cmax ([2]; sitagliptin in combination with dorzagliatin vs sitagliptin alone, 90% CI: 84, 115): 98%; Percent GMR of sitagliptin AUC0-24h ([2]; sitagliptin in combination with dorzagliatin vs sitagliptin alone, 90% CI: 86, 100): 93%
